Active and inactive are the calls of the source. The rule behind the calls is not given here.
Legend:
[1] = test system: Panel NCI-60 (60 carcinoma cell lines); assay: Anticancer activity against human Panel NCI-60 (60 carcinoma cell lines) assessed as cell growth inhibition at 10 uM; format: functional, cell-based
Homo sapiens [2] = species: Homo sapiens; assay: Selectivity ratio of IC50 for human HaCaT cells to IC50 for human WaGa cells; conditions: tested as the 2H-labelled form
Homo sapiens [3] = species: Homo sapiens; assay: Selectivity ratio of IC50 for human HaCaT cells to IC50 for human UISO cells; conditions: tested as the 2H-labelled form
[4] = test system: Panel NCI-60 (60 carcinoma cell lines); assay: Anticancer activity against human Panel NCI-60 (60 carcinoma cell lines) assessed as growth inhibition; format: functional
Homo sapiens [5] = species: Homo sapiens; assay: Selectivity ratio of IC50 for human HaCaT cells to IC50 for human MCC26 cells; conditions: tested as the 2H-labelled form
Homo sapiens [6] = species: Homo sapiens; assay: Selectivity ratio of IC50 for human HaCaT cells to IC50 for human MCC13 cells; conditions: tested as the 2H-labelled form
Homo sapiens [7] = species: Homo sapiens; assay: Selectivity ratio of IC50 for human HaCaT cells to IC50 for human MKL-1 cells; conditions: tested as the 2H-labelled form
[8] = Cytotoxicity against human HaCaT cells assessed as inhibition of cell growth; format: toxicity, cell-based
[9] = Anticancer activity against human MCC13 cells assessed as inhibition of cell growth; format: functional, cell-based
[10] = Anticancer activity against human MKL-1 cells assessed as inhibition of cell growth; format: functional, cell-based
[11] = Anticancer activity against human UISO cells assessed as inhibition of cell growth; format: functional, cell-based
[12] = Anticancer activity against human MCC26 cells assessed as inhibition of cell growth; format: functional, cell-based
[13] = Anticancer activity against human WaGa cells assessed as inhibition of cell growth; format: functional, cell-based

In the case of `Cc1[nH]c2c3c1CC[N+]1=C3C3=C(N[C@@H]4C[C@@]35C(=CC(=O)[C@@H]1[C@@H]5Sc1ncn(C)c1C[C@H](N)C(=O)O)S4)C2=O`, the Activity ([1]; tested as the 2H-labelled form) is reported as “inactive”.
In the case of `Cn1cnc(S[C@H]2[C@H]3C(=O)C=C4S[C@H]5C[C@]42C2=C(N5)C(=O)c4[nH]cc5c4C2=[N+]3CC5)c1C[C@H](N)C(=O)O`, the Activity [1] is reported as “inactive”.
In the case of `Cc1[nH]c2c3c1CC[N+]1=C3C3=C(N[C@@H]4C[C@@]35C(=CC(=O)[C@@H]1[C@@H]5O)S4)C2=O`, the Ratio IC50 (Homo sapiens [2]) is reported as 13, the Ratio IC50 (Homo sapiens [3]) is reported as 3 and the GI50 [4] is reported as 5750 nM. It also gave a Ratio IC50 (Homo sapiens [5]) of 3, a Ratio IC50 (Homo sapiens [6]) of 3 and a Ratio IC50 (Homo sapiens [7]) of 13.
With `O=C([O-])C(F)(F)F.[2H]C([2H])([2H])c1[nH]c2c3c1CC[N+]1=C3C3=C(N[C@@H]4C[C@@]35C(=CC(=O)[C@@H]1[C@@H]5O)S4)C2=O` the IC50 [8] was 6200 nM, the GI50 [4] was 1650 nM and the IC50 [9] was 2500 nM. The IC50 [10] was 250 nM, the IC50 [11] was 1410 nM and the IC50 [12] was 1990 nM. It also gave an IC50 [13] of 720 nM.
Work on `O=C1C(Br)=CC2(C=C1Br)CCNC1=C2C2=NCCc3c(Br)[nH]c(c32)C1=O` yielded a GI50 [4] of 420 nM.
With `O=C1C2=C3C4=[N+](CCc5c[nH]c1c54)[C@@H]1C(=O)C=C4S[C@@H](C[C@@]43[C@H]1O)N2` [DISCORHABDIN L] the GI50 [4] was 790 nM.
Compound `O=C1C(Br)=CC2(C=C1Br)CCNC1=C2C2=NCCc3c[nH]c(c32)C1=O` [DISCORHABDIN C] has a GI50 [4] of 130 nM.

From ChEMBL document CHEMBL5376010, “Formation of Trideuteromethylated Artifacts of Pyrrole-Containing Natural Products” (J Nat Prod, 2024)
